Values of other authors in patent publication US7109216B2 (priority 2001, dated 2006).

Target: CB1 receptor (Homo sapiens, UniProt P21554)
Conditions: Meschler et al. 2000; cited from earlier work

Sequence of CB1 receptor (P21554 whole entry): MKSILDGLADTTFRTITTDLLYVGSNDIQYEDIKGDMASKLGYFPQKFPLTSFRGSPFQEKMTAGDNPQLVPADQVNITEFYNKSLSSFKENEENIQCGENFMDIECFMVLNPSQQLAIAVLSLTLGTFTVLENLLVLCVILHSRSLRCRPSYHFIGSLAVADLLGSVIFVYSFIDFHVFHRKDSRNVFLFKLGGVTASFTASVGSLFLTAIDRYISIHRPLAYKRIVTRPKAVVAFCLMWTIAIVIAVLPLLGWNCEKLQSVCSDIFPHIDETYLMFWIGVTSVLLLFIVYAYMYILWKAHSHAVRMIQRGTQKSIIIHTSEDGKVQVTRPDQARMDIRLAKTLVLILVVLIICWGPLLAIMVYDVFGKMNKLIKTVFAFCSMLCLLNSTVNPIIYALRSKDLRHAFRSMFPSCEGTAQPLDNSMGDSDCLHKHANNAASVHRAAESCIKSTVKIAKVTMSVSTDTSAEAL

COc1ccc(-c2c(C#N)c(C(=O)Nc3ccccc3)nn2-c2ccccc2Cl)cc1 [CP-272871]
CB1 receptor subtype selectivity compared with SR141716A: less CB1 receptor subtype-selective | potency compared with SR141716A: less potent
